# Assay results from ChEMBL document CHEMBL6127020, “Discovery of aminopiperidine based potent & novel topoisomerase inhibitor with broad spectrum anti-bacterial activity” (Bioorg Med Chem Lett, 2024).
# Legend:
# Haemophilus influenzae = assay: Antibacterial activity against Haemophilus influenzae assessed as inhibition of bacterial growth; format: functional
# [1] = Solubility of compound in PBS; format: physicochemical; conditions: PBS; read-out: solubility
# Streptococcus pyogenes = assay: Antibacterial activity against Streptococcus pyogenes assessed as inhibition of bacterial growth; format: functional
# Shigella flexneri = assay: Antibacterial activity against Shigella flexneri assessed as inhibition of bacterial growth; format: functional
# Acinetobacter baumannii = assay: Antibacterial activity against Acinetobacter baumannii assessed as inhibition of bacterial growth; format: functional
# Enterococcus faecium = assay: Antibacterial activity against Enterococcus faecium assessed as inhibition of bacterial growth; format: functional
# Salmonella enterica = assay: Antibacterial activity against Salmonella enterica assessed as inhibition of bacterial growth; format: functional
# Cytochrome P450 2C19 = Cytochrome P450 2C19 (Homo sapiens, UniProt P33261); assay: Inhibition of CYP2C19 (unknown origin) at 10 uM; format: ADME
# Staphylococcus aureus [2] = assay: Antibacterial activity against Staphylococcus aureus ATCC 29213 assessed as inhibition of bacterial growth; format: functional
# [3] = AUC (0 to t) in C57 mouse at 1 mg/kg,iv administration; format: ADME, organism-based; conditions: in vivo
# [4] = Cmax in C57 mouse at 3 mg/kg,po administration; format: ADME, organism-based; conditions: in vivo
# Enterococcus faecalis [5] = assay: Antibacterial activity against Enterococcus faecalis assessed as inhibition of bacterial growth; format: functional
# [6] = AUC (0 to t) in C57 mouse at 3 mg/kg,po administration; format: ADME, organism-based; conditions: in vivo
# [7] = Volume of distribution at steady state in C57 mouse at 1 mg/kg,iv administration; format: ADME, organism-based; conditions: in vivo, read-out: Vdss
# [8] = MRT in C57 mouse at 1 mg/kg,iv administration; format: ADME, organism-based; conditions: in vivo
# Streptococcus pneumoniae = assay: Antibacterial activity against Streptococcus pneumoniae assessed as inhibition of bacterial growth; format: functional
# Staphylococcus aureus [9] = assay: Antibacterial activity against Staphylococcus aureus assessed as inhibition of bacterial growth; format: functional
# [10] = Aqueous solubility of compound; format: physicochemical; conditions: aqueous medium; read-out: solubility
# [11] = Bioavailability in C57 mouse at 1 mg/kg,iv administration; format: ADME, organism-based; conditions: in vivo
# [12] = Clearance in C57 mouse at 1 mg/kg,iv administration; format: ADME, organism-based; conditions: in vivo
# Escherichia coli [13] = assay: Antibacterial activity against Escherichia coli ATCC 25922 assessed as inhibition of bacterial growth; format: functional
# [14] = Tmax in C57 mouse at 3 mg/kg,po administration; format: ADME, organism-based; conditions: in vivo
# DNA gyrase = DNA gyrase (Staphylococcus aureus, UniProt P0A0K8+P20831); assay: Inhibition of Staphylococcus aureus DNA gyrase; format: protein-complex assay
# Cytochrome P450 2C8 = target: T1, Cytochrome P450 2C8 (Homo sapiens, UniProt P10632); assay: Inhibition of CYP2C8 (unknown origin) at 10 uM; format: ADME
# T1 sequence (P10632 whole entry): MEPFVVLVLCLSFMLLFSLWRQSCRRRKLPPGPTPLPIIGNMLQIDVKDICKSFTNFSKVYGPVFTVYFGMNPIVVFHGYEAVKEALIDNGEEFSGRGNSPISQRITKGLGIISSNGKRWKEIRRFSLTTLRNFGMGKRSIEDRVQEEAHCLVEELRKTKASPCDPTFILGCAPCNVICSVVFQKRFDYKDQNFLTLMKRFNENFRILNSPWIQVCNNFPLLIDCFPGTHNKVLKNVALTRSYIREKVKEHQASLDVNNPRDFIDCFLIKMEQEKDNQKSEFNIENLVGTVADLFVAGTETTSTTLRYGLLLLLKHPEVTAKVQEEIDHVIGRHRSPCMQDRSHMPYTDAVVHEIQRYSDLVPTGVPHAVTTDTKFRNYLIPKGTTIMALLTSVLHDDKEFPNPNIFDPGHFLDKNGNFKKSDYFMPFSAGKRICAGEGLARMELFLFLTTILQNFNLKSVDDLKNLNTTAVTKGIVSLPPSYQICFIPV
# Helicobacter pylori = assay: Antibacterial activity against Helicobacter pylori assessed as inhibition of bacterial growth; format: functional
# Pseudomonas aeruginosa = assay: Antibacterial activity against Pseudomonas aeruginosa assessed as inhibition of bacterial growth; format: functional
# Cytochrome P450 1A2 = target: T2, Cytochrome P450 1A2 (Homo sapiens, UniProt P05177); assay: Inhibition of CYP1A2 (unknown origin) at 10 uM; format: ADME
# T2 sequence (P05177 whole entry): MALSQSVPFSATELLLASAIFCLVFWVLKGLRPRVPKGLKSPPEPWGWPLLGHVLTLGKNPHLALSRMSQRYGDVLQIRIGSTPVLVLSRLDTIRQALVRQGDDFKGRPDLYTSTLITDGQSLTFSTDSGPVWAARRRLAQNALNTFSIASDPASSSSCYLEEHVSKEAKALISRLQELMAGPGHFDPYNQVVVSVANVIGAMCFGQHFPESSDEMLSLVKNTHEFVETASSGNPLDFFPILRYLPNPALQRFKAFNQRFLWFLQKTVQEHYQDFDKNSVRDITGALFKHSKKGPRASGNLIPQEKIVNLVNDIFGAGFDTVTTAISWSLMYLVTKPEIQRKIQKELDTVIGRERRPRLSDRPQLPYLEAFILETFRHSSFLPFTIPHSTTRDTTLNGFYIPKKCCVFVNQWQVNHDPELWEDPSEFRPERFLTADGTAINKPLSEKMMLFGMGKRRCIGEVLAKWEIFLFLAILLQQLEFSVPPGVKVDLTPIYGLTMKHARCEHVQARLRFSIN
# Escherichia coli [15] = assay: Antibacterial activity against Escherichia coli assessed as inhibition of bacterial growth; format: functional
# Cytochrome P450 2D6 = Cytochrome P450 2D6 (Homo sapiens, UniProt P10635); assay: Inhibition of CYP2D6 (unknown origin) at 10 uM; format: ADME
# [16] = Plasma protein binding in human; format: ADME, cell-free; conditions: read-out: PPB (converted)
# Cytochrome P450 3A4 = Cytochrome P450 3A4 (Homo sapiens, UniProt P08684); assay: Inhibition of CYP3A4 (unknown origin) at 10 uM; format: ADME
# Salmonella typhimurium = assay: Antibacterial activity against Salmonella typhimurium assessed as inhibition of bacterial growth; format: functional, Salmonella enterica subsp. enterica serovar Typhimurium
# Enterococcus faecalis [17] = assay: Antibacterial activity against vancomycin-resistant Enterococcus faecalis assessed as inhibition of bacterial growth; format: functional
# [18] = Half life in C57 mouse at 1 mg/kg,iv administration; format: ADME, organism-based; conditions: in vivo
# Staphylococcus aureus [19] = assay: Antibacterial activity against methicillin resistant Staphylococcus aureus assessed as inhibition of bacterial growth; format: functional
# [20] = C0 in C57 mouse at 1 mg/kg,iv administration; format: ADME, organism-based; conditions: in vivo
# Topoisomerase IV = Topoisomerase IV (Staphylococcus aureus, UniProt P0C1S7+P0C1U9); assay: Inhibition of Staphylococcus aureus DNA topoisomerase 4; format: protein-complex assay
# Klebsiella pneumoniae = assay: Antibacterial activity against Klebsiella pneumoniae assessed as inhibition of bacterial growth; format: functional
# Chain of Topoisomerase IV (P0C1U9 whole entry): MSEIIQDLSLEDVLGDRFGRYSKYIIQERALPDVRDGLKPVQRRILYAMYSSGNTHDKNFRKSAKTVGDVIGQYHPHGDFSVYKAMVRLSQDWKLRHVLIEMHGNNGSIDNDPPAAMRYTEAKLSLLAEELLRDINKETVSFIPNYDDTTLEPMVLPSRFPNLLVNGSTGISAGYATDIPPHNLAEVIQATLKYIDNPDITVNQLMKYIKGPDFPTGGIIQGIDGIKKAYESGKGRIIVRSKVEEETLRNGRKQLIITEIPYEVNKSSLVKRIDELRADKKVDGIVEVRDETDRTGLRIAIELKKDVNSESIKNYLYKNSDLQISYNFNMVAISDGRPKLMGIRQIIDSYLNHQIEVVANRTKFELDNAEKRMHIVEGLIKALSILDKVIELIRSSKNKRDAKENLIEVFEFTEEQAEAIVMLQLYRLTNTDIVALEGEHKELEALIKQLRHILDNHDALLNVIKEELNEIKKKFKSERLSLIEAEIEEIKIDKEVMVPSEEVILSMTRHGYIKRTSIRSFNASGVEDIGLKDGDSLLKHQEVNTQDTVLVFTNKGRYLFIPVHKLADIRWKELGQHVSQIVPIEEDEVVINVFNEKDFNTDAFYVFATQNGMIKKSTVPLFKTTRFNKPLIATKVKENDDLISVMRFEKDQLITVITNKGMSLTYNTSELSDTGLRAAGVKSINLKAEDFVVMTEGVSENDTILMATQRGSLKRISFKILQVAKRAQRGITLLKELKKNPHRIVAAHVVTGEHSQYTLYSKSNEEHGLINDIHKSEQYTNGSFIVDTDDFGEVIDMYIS
# Chain of Topoisomerase IV (P0C1S7 whole entry): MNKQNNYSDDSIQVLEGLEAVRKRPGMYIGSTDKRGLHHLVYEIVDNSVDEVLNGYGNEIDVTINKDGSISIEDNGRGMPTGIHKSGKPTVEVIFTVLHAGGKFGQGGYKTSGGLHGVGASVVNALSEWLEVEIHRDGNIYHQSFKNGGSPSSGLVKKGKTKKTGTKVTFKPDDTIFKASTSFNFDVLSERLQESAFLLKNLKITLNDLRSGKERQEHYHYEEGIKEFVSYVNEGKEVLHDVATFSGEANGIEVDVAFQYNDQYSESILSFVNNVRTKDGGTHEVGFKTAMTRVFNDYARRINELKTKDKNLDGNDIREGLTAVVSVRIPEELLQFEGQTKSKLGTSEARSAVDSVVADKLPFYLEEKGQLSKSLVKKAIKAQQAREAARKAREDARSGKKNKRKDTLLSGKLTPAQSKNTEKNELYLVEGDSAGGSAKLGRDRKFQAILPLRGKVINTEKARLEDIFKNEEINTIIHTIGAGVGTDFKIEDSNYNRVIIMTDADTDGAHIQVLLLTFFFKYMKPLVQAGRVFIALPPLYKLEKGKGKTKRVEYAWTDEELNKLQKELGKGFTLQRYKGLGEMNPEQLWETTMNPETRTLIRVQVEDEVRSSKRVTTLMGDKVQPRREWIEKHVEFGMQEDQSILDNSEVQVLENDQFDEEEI
# Chain of DNA gyrase (P0A0K8 whole entry): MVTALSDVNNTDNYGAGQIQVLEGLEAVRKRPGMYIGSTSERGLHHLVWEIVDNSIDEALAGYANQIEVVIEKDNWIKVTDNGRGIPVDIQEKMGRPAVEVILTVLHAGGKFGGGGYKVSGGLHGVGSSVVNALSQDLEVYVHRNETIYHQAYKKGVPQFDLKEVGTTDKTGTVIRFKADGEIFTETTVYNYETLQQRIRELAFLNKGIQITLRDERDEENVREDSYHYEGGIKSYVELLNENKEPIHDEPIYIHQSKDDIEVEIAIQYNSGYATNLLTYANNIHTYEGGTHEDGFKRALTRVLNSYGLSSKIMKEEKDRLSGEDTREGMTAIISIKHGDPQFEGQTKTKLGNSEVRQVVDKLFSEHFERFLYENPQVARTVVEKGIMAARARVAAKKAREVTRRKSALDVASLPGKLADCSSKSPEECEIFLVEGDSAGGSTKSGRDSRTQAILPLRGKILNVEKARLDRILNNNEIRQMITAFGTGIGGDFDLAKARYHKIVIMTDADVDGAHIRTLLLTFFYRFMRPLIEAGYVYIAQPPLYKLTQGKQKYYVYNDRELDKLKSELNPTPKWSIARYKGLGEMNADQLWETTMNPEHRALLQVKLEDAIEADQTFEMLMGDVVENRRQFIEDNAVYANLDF
# Chain of DNA gyrase (P20831 whole entry): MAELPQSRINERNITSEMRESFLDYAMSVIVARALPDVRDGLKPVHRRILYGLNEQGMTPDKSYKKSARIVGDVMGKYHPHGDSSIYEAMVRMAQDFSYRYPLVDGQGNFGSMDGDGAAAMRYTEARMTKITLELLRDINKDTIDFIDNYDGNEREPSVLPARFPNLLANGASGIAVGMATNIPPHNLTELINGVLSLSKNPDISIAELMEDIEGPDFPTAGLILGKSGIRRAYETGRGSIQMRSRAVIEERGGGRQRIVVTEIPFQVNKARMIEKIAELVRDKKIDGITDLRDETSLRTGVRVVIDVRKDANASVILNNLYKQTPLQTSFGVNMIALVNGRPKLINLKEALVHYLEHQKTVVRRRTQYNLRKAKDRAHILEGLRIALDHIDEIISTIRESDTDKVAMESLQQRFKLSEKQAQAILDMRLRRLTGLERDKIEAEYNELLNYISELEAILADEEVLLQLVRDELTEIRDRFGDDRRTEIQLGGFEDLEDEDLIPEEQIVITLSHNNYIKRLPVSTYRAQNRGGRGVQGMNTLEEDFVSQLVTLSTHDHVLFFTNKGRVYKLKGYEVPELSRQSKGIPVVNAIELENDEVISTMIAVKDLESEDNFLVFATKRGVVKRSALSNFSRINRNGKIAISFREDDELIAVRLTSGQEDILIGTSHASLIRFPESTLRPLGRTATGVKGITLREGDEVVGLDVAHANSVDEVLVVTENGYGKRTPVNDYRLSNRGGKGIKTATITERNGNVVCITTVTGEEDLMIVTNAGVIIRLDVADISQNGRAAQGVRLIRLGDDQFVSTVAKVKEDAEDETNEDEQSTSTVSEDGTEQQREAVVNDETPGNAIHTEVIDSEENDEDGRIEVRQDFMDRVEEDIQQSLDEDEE
# Chain of Cytochrome P450 3A4 (P08684 whole entry): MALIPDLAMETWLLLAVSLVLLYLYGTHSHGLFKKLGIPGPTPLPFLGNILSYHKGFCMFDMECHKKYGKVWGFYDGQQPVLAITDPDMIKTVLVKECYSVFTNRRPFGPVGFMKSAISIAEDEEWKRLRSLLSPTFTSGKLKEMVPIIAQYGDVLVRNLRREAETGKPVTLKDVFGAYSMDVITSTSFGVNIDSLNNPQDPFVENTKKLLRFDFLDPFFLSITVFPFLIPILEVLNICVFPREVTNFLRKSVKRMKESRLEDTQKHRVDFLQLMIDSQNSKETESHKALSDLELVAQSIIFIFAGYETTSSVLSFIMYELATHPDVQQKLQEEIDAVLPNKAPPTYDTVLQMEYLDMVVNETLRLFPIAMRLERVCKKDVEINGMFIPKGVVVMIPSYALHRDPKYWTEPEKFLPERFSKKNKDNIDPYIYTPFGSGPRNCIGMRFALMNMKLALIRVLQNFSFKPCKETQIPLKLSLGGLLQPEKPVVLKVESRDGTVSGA
# Chain of Cytochrome P450 2C19 (P33261 whole entry): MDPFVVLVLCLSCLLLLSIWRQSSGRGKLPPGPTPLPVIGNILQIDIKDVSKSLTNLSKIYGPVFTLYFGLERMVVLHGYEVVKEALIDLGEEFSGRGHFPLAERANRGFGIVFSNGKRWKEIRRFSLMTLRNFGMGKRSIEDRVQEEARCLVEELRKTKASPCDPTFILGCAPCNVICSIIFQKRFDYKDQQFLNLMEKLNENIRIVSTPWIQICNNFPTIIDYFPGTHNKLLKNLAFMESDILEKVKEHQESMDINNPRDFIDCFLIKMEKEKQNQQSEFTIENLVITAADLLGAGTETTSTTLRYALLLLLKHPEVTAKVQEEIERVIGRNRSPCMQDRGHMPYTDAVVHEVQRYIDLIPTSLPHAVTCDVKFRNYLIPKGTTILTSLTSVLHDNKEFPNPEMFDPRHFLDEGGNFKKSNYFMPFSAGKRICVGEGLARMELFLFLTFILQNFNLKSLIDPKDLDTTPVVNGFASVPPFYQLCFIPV
# Chain of Cytochrome P450 2D6 (P10635 whole entry): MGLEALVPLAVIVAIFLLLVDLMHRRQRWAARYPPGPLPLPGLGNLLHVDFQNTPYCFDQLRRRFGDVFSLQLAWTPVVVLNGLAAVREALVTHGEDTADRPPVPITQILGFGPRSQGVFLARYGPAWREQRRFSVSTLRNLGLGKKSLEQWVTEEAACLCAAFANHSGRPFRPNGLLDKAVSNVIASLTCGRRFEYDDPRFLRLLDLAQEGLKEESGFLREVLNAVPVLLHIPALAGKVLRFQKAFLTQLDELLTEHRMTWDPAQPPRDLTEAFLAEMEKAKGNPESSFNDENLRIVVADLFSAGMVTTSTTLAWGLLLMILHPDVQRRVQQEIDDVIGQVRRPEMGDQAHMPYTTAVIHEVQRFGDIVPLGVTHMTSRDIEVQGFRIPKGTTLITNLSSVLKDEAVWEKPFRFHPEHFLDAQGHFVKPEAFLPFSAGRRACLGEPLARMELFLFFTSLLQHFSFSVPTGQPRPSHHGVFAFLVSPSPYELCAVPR
structure (smiles),measurement,setting,value
N#Cc1ccc2ccc(=O)n(CCN3CCC(NCc4ccc5c(c4)NC(=O)CS5)CC3)c2c1,MIC,Haemophilus influenzae,2 µg/mL
same,solubility,[1],611 µg/mL
same,MIC,Streptococcus pyogenes,0.15 µg/mL
same,MIC90,Streptococcus pyogenes,0.25 µg/mL
same,MIC,Shigella flexneri,0.25 µg/mL
same,MIC,Acinetobacter baumannii,0.125 µg/mL
same,MIC90,Acinetobacter baumannii,2 µg/mL
same,MIC,Enterococcus faecium,1 µg/mL
same,MIC90,Enterococcus faecium,1 µg/mL
same,MIC,Salmonella enterica,1 µg/mL
same,inhibition (INH),Cytochrome P450 2C19,Not Active
same,MIC,Staphylococcus aureus [2],< 0.125 µg/mL
same,AUC(0-t),[3],206 ng·h/mL
same,Cmax,[4],22 ng/mL
same,MIC,Enterococcus faecalis [5],0.5 µg/mL
same,MIC90,Enterococcus faecalis [5],0.5 µg/mL
same,AUC(0-t),[6],110 ng·h/mL
same,Vd,[7],14 L/kg
same,MRT,[8],3 h
same,MIC,Streptococcus pneumoniae,0.125 µg/mL
same,MIC90,Streptococcus pneumoniae,1 µg/mL
same,MIC,Staphylococcus aureus [9],0.016 µg/mL
same,MIC90,Staphylococcus aureus [9],0.125 µg/mL
same,solubility,[10],719 µg/mL
same,bioavailability,[11],18%
same,clearance,[12],80 mL/min/kg
same,MIC,Escherichia coli [13],< 0.125 µg/mL
same,Tmax,[14],3 h
same,IC50,DNA gyrase,3.2 nM
same,inhibition (INH),Cytochrome P450 2C8,Not Active
same,MIC,Helicobacter pylori,< 0.06 µg/mL
same,MIC,Pseudomonas aeruginosa,0.125 µg/mL
same,MIC90,Pseudomonas aeruginosa,8 µg/mL
same,inhibition (INH),Cytochrome P450 1A2,Not Active
same,MIC,Escherichia coli [15],0.125 µg/mL
same,MIC90,Escherichia coli [15],2 µg/mL
same,inhibition (INH),Cytochrome P450 2D6,Not Active
same,fraction unbound,[16],0.21
same,inhibition (INH),Cytochrome P450 3A4,Not Active
same,MIC,Salmonella typhimurium,2 µg/mL
same,MIC,Enterococcus faecalis [17],0.25 µg/mL
same,MIC90,Enterococcus faecalis [17],4 µg/mL
same,half-life,[18],2.5 h
same,MIC,Staphylococcus aureus [19],0.03 µg/mL
same,MIC90,Staphylococcus aureus [19],0.125 µg/mL
same,C0,[20],1210 ng/mL
same,IC50,Topoisomerase IV,300 nM
same,MIC90,Klebsiella pneumoniae,16 µg/mL
